Activity calls are given as the source filed them. The calls are words filed in the database; no cut-off is given here.

The first data set deals with Mus musculus. As to the kind of experiment: Anticonvulsant activity in Mus musculus (mouse) assessed as protection against maximal electroshock-induced seizures at 0.5 mmol/kg, ip administered 30 min prior to seizure induction measured for 60 min relative to control. The class given is functional.
Details: not given
(In general: The maximal electroshock test induces tonic seizures with an electrical stimulus.)
With `CCOC(=O)NNC(=O)COc1cccc2c(=O)n(-c3ccccc3C)c(C)nc12`, the Activity is given as 100%.
Still for that read-out and setting: in the case of `Cc1ccccc1-n1c(C)nc2c(OCC(=O)NNC(N)=O)cccc2c1=O` it was 0%; in that of `Cc1ccccc1-n1c(C)nc2c(OCC(=O)N/N=C\c3ccccc3F)cccc2c1=O`, 50%; in that of `Cc1ccccc1-n1c(C)nc2c(OCC(=O)NNC(=S)NN)cccc2c1=O`, 33%.
Same read-out and setting: in the case of `Cc1ccccc1-n1c(C)nc2c(OCC(=O)N/N=C\c3ccccc3)cccc2c1=O` it was 0%.
Same read-out and setting: as for `COc1ccccc1/C=N\NC(=O)COc1cccc2c(=O)n(-c3ccccc3C)c(C)nc12`, the figure is 0%; as for `Cc1ccccc1-n1c(C)nc2c(OCC(=O)NNC(=O)NN)cccc2c1=O`, 0%.
Consider `CSC(=S)NNC(=O)COc1cccc2c(=O)n(-c3ccccc3C)c(C)nc12`, for which the Activity is given as 100%.
For `Cc1ccccc1-n1c(C)nc2c(OCC(=O)NCCO)cccc2c1=O`, the Activity was 0%.
Still for that read-out and setting: in the case of `Cc1ccccc1-n1c(C)nc2c(OCC(=O)NN)cccc2c1=O` it was 50%.

System in a further data set: not listed separately
The data set is described as follows: Acute neurotoxicity in ip dosed Mus musculus (mouse) assessed as motor impairment administered 30 min prior to testing measured for 30 secs by chimney test. In kind it is toxicity, organism-based. Particulars: in vivo.
Consider `CCOC(=O)NNC(=O)COc1cccc2c(=O)n(-c3ccccc3C)c(C)nc12`, for which the TD50 at 0.5 min was determined as 600 µmol/kg.
As for `Cc1ccccc1-n1c(C)nc2ccccc2c1=O` [METHAQUALONE], the TD50 at 0.5 min amounted to 1600 µmol/kg.
On the same count and under the same terms, as for `CSC(=S)NNC(=O)COc1cccc2c(=O)n(-c3ccccc3C)c(C)nc12`, the figure is 670 µmol/kg; as for `CCCC(CCC)C(=O)[O-].[Na+]` [VALPROATE SODIUM], 9600 µmol/kg; as for `Cc1ccccc1-n1c(C)nc2c(OCC(=O)NN)cccc2c1=O`, 790 µmol/kg.

For another data set, the system named is Mus musculus. The data set is described as follows: Anticonvulsant activity in Mus musculus (mouse) assessed as protection against pentylenetetrazol-induced seizures at 1.5 mmol/kg, ip administered 30 min prior to seizure induction measured for 60 min relative to control.
Details: not given
The class given is functional.
Consider `CCCC(CCC)C(=O)[O-].[Na+]` [VALPROATE SODIUM], for which the Activity came out at 100%.

In another data set the test system is Mus musculus. As to the kind of experiment: Anticonvulsant activity in Mus musculus (mouse) assessed as protection against pentylenetetrazol-induced seizures at 0.5 mmol/kg, ip administered 30 min prior to seizure induction measured for 60 min relative to control. In kind it is functional.
Details: not given
For the compound `CCOC(=O)NNC(=O)COc1cccc2c(=O)n(-c3ccccc3C)c(C)nc12`, the Activity was found to be 100%.
Same read-out and setting: as for `Cc1ccccc1-n1c(C)nc2c(OCC(=O)NNC(N)=O)cccc2c1=O`, the figure is 50%.
The same measure, in the same setting: in the case of `Cc1ccccc1-n1c(C)nc2c(OCC(=O)N/N=C\c3ccccc3F)cccc2c1=O` it was 66%; in that of `Cc1ccccc1-n1c(C)nc2c(OCC(=O)NNC(=S)NN)cccc2c1=O`, 66%; in that of `Cc1ccccc1-n1c(C)nc2c(OCC(=O)N/N=C\c3ccccc3)cccc2c1=O`, 50%.
`COc1ccccc1/C=N\NC(=O)COc1cccc2c(=O)n(-c3ccccc3C)c(C)nc12`: the Activity came out at 33%.
Still for that read-out and setting: in the case of `Cc1ccccc1-n1c(C)nc2c(OCC(=O)NNC(=O)NN)cccc2c1=O` it was 50%; in that of `CSC(=S)NNC(=O)COc1cccc2c(=O)n(-c3ccccc3C)c(C)nc12`, 100%; in that of `Cc1ccccc1-n1c(C)nc2c(OCC(=O)NCCO)cccc2c1=O`, 50%.
The same measure, in the same setting: as for `Cc1ccccc1-n1c(C)nc2c(OCC(=O)NN)cccc2c1=O`, the figure is 100%.

System in the next data set: not listed separately
The data set is described as follows: Therapeutic index, ratio of LD50 for ip dosed Mus musculus (mouse) to ED50 for protection against pentylenetetrazol-induced seizures in ip dosed mouse. Conditions: in vivo, read-out: Ratio LD50/ED50. In kind it is organism-based.
For the compound `CCOC(=O)NNC(=O)COc1cccc2c(=O)n(-c3ccccc3C)c(C)nc12`, the selectivity ratio was 1.51.
On the same count and under the same terms, in the case of `Cc1ccccc1-n1c(C)nc2ccccc2c1=O` [METHAQUALONE] it was 1.4.
Still for that read-out and setting: as for `CSC(=S)NNC(=O)COc1cccc2c(=O)n(-c3ccccc3C)c(C)nc12`, the figure is 3.34; as for `Cc1ccccc1-n1c(C)nc2c(OCC(=O)NN)cccc2c1=O`, 10.2.

Another data set relates to Mus musculus. As to the kind of experiment: Anticonvulsant activity in Mus musculus (mouse) assessed as protection against maximal electroshock-induced seizures at 1.5 mmol/kg, ip administered 30 min prior to seizure induction measured for 60 min relative to control. The class given is functional.
Details: not given
As for `CCCC(CCC)C(=O)[O-].[Na+]` [VALPROATE SODIUM], the Activity came to 100%.

For another data set, the system named is Mus musculus. The data set is described as follows: Anticonvulsant activity in Mus musculus (mouse) assessed as protection against pentylenetetrazol-induced seizures at 1.4 mmol/kg, ip administered 30 min prior to seizure induction measured for 60 min relative to control. In kind it is functional.
Details: not given
Take `Cc1ccccc1-n1c(C)nc2ccccc2c1=O` [METHAQUALONE]: the Activity was 100%.

A further data set has as its system Mus musculus. The data set is described as follows: Anticonvulsant activity in Mus musculus (mouse) assessed as protection against strychnine-induced seizures at 0.5 mmol/kg, ip administered 30 min prior to seizure induction measured for 60 min relative to control.
Details: not given
In kind it is functional, organism-based.
Take `CCOC(=O)NNC(=O)COc1cccc2c(=O)n(-c3ccccc3C)c(C)nc12`: the result was inactive.
On the same count and under the same terms, as for `Cc1ccccc1-n1c(C)nc2c(OCC(=O)NNC(N)=O)cccc2c1=O`, the entry is “inactive”.
With `Cc1ccccc1-n1c(C)nc2c(OCC(=O)N/N=C\c3ccccc3F)cccc2c1=O`, the result was inactive.
Same read-out and setting: as for `Cc1ccccc1-n1c(C)nc2c(OCC(=O)NNC(=S)NN)cccc2c1=O`, the entry is “inactive”; as for `Cc1ccccc1-n1c(C)nc2c(OCC(=O)N/N=C\c3ccccc3)cccc2c1=O`, “inactive”.
The same measure, in the same setting: in the case of `COc1ccccc1/C=N\NC(=O)COc1cccc2c(=O)n(-c3ccccc3C)c(C)nc12` it was “inactive”; in that of `Cc1ccccc1-n1c(C)nc2c(OCC(=O)NNC(=O)NN)cccc2c1=O`, “inactive”; in that of `CSC(=S)NNC(=O)COc1cccc2c(=O)n(-c3ccccc3C)c(C)nc12`, “inactive”.
Still for that read-out and setting: as for `Cc1ccccc1-n1c(C)nc2c(OCC(=O)NCCO)cccc2c1=O`, the entry is “inactive”.
Regarding `Cc1ccccc1-n1c(C)nc2c(OCC(=O)NN)cccc2c1=O`, the outcome was inactive.

System in a further data set: not listed separately
The data set is described as follows: Toxicity in ip dosed Mus musculus (mouse) assessed as mortality. In kind it is organism-based. Conditions: in vivo.
`CCOC(=O)NNC(=O)COc1cccc2c(=O)n(-c3ccccc3C)c(C)nc12`: the median lethal dose (LD50) is 1020 µmol/kg.
On the same count and under the same terms, in the case of `CSC(=S)NNC(=O)COc1cccc2c(=O)n(-c3ccccc3C)c(C)nc12` it was 1170 µmol/kg.
Still for that read-out and setting: in the case of `CCCC(CCC)C(=O)[O-].[Na+]` [VALPROATE SODIUM] it was 11900 µmol/kg.
On the same count and under the same terms, as for `Cc1ccccc1-n1c(C)nc2c(OCC(=O)NN)cccc2c1=O`, the figure is 2960 µmol/kg.

Another data set concerns Mus musculus. As to the kind of experiment: Protective index, ratio of TD50 for ip dosed Mus musculus (mouse) to ED50 for protection against pentylenetetrazol-induced seizures in ip dosed mouse. The class given is functional.
Details: not given
On to `Cc1ccccc1-n1c(C)nc2c(OCC(=O)NN)cccc2c1=O`, for which the “Ratio TD50/ED50” value was 2.7.

The next data set relates to Mus musculus. The data set is described as follows: Anticonvulsant activity in Mus musculus (mouse) assessed as protection against picrotoxin-induced seizures at 0.5 mmol/kg, ip administered 30 min prior to seizure induction measured for 60 min relative to control. The class given is functional, organism-based.
Details: not given
In the case of `CCOC(=O)NNC(=O)COc1cccc2c(=O)n(-c3ccccc3C)c(C)nc12`, the outcome was inactive.
`Cc1ccccc1-n1c(C)nc2c(OCC(=O)NNC(N)=O)cccc2c1=O`: the outcome was inactive.
For the compound `Cc1ccccc1-n1c(C)nc2c(OCC(=O)N/N=C\c3ccccc3F)cccc2c1=O`, the outcome was inactive.
As for `Cc1ccccc1-n1c(C)nc2c(OCC(=O)NNC(=S)NN)cccc2c1=O`, the outcome was inactive.
In the case of `Cc1ccccc1-n1c(C)nc2c(OCC(=O)N/N=C\c3ccccc3)cccc2c1=O`, the outcome was inactive.
The same measure, in the same setting: as for `COc1ccccc1/C=N\NC(=O)COc1cccc2c(=O)n(-c3ccccc3C)c(C)nc12`, the entry is “inactive”.
Still for that read-out and setting: in the case of `Cc1ccccc1-n1c(C)nc2c(OCC(=O)NNC(=O)NN)cccc2c1=O` it was “inactive”; in that of `CSC(=S)NNC(=O)COc1cccc2c(=O)n(-c3ccccc3C)c(C)nc12`, “inactive”; in that of `Cc1ccccc1-n1c(C)nc2c(OCC(=O)NCCO)cccc2c1=O`, “inactive”.
The same measure, in the same setting: in the case of `Cc1ccccc1-n1c(C)nc2c(OCC(=O)NN)cccc2c1=O` it was “inactive”.

The next data set concerns Mus musculus. As to the kind of experiment: Anticonvulsant activity in ip dosed Mus musculus (mouse) assessed as protection against pentylenetetrazol-induced seizures administered 30 min prior to seizure induction measured for 60 min. In kind it is functional.
Details: not given
Turning to `CCOC(=O)NNC(=O)COc1cccc2c(=O)n(-c3ccccc3C)c(C)nc12`, the ED50 was found to be 390 µmol/kg.
In the case of `Cc1ccccc1-n1c(C)nc2ccccc2c1=O` [METHAQUALONE], the ED50 came out at 1400 µmol/kg.
Same read-out and setting: as for `CSC(=S)NNC(=O)COc1cccc2c(=O)n(-c3ccccc3C)c(C)nc12`, the figure is 350 µmol/kg; as for `CCCC(CCC)C(=O)[O-].[Na+]` [VALPROATE SODIUM], 4800 µmol/kg; as for `Cc1ccccc1-n1c(C)nc2c(OCC(=O)NN)cccc2c1=O`, 290 µmol/kg.

The test system of the next data set is Mus musculus. The data set is described as follows: Anticonvulsant activity in Mus musculus (mouse) assessed as protection against maximal electroshock-induced seizures at 1.4 mmol/kg, ip administered 30 min prior to seizure induction measured for 60 min relative to control. The class given is functional.
Details: not given
In the case of `Cc1ccccc1-n1c(C)nc2ccccc2c1=O` [METHAQUALONE], the Activity turned out to be 100%.

In general, TD50 refers to the 50% point of the dose-response relation for the toxic effect studied. As usually defined, the LD50 is the dose at which mortality reaches 50%. One may read the ED50 as the dose at which the effect has come halfway, by size or by number of responders.

Values taken from ChEMBL document CHEMBL3044593, “Design, synthesis and anticonvulsant evaluation of novel 8-substituted-4(3H)-quinazolines” (Med Chem Res, 2012).
